Results from US10849875B2, “Cancer specific lipid targeted peptidomimetics” (University of Houston System, priority 2015, dated 2020).
Positions of bridges follow the written chain, without caps; N, C: chain ends. Non-standard residues stand in square brackets, D forms with d. Residues, ends and D or L forms follow the SMILES beside them. Chains are numbered I, II in the order given. Gly(N-piperonyl) = O=C(O)CNCc1ccc2c(c1)OCO2; N(4-MeOBn)Gly = COc1ccc(CNCC(=O)O)cc1; Nrpe = C[C@@H](NCC(=O)O)c1ccccc1; Nlys = NCCCCNCC(=O)O

Tested on: HCC4017 cells
Test: MTS cell viability assay
Type: cell-based, human
Experimental: After confirming the binding and specificity of the PPS1 on HCC4017 lung cancer cells, whether this compound has any biological effects on HCC4017 lung cancer cells was assayed. The gold standard cell viability (MTS) assay was used. […] On one of the repetitive experiments of this assay, Cystinylated-PPS1 compound was included (FIG. 6A). This was the intermediate compound used to attach the FITC-malemide for binding assays described previously. […] The only difference between this Cystinylated-PPS1 and the original PPS1 compound was just a single cysteine amino acid at the C-terminal. It was difficult to rationalize having a single amino acid residue at the terminus of the sequence causing a large difference of activity, other possibilities were considered. Cysteine has sulfur (—SH) group on the side chain and two of these can easily form disulfide bonds. […]
A homo-dimeric version of PPS1 was synthesized. […] The resulting dimeric version of the PPS1 compound, PPS1D1 (FIG. 6C), and the analogous dimeric versions of scrambled PC2, PC2D1 (FIG. 6E), and control compound C462, PC462D1 (FIG. 82), were then evaluated for activity. […] As described above, HCC4017 cells and HBEC30kt and HBEC3kt cells were grown in 96 well plates on day 1, treated serial dilutions of PPS1, PPS1D1, C462 and C462D1 on day 2, and viable cell count was measured using MTS reagent on day 3. […]

## COc1ccc(CN(CC(=O)N(CCCCN)CC(=O)N[C@@H](CCCCN)C(=O)N[C@H](CCCCN)C(=O)N[C@@H](CCSC)C(=O)NCCCC[C@H](NC(=O)[C@H](CCSC)NC(=O)[C@@H](CCCCN)NC(=O)[C@H](CCCCN)NC(=O)CN(CCCCN)C(=O)CN(Cc2ccc(OC)cc2)C(=O)CN(C(=O)CN(Cc2ccc3c(c2)OCO3)C(=O)CN[C@H](C)c2ccccc2)[C@H](C)c2ccccc2)C(N)=O)C(=O)CN(C(=O)CN(Cc2ccc3c(c2)OCO3)C(=O)CN[C@H](C)c2ccccc2)[C@H](C)c2ccccc2)cc1 [PPS1D1] (I: H-[Nrpe][Gly(N-piperonyl)][Nrpe][N(4-MeOBn)Gly][Nlys]K[dK]MK-NH2 / II: H-[Nrpe][Gly(N-piperonyl)][Nrpe][N(4-MeOBn)Gly][Nlys]K[dK]M; amide I:9-II:C; N-terminus assumed)
HCC4017, tested at 6, 12 and 24 hours post treatment
  activity at different times post treatment: somewhat similar
MTS, HCC4017
  IC50: ~10 µM
